From PubChem BioAssay AID1963959 (Molecular Pharmacology Branch, DTP, NCI, 2024)

Tested on: T-47D spheroids with HUVEC/MSC, viability
Experiment: Anticancer human tumor T-47D cell line growth inhibition [PI3K];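 also: spheroids exposed to agents for seven days before reading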;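 as to viability, T/C: percent of DMSO vehicle control luminescence so 100% = untreated growth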
Settings: for IC50: curve of first compound; for viability, T/C: stronger effect = lower value
Source text: Combinatorial screen of targeted agents with the PI3K inhibitors inavolisib, alpelisib, duvelisib, and copanlisib in multi-cell type tumor spheroids
A high-throughput screen of multi-cell type tumor spheroids was designed to identify active combinations of targeted small molecules and PI3K pathway inhibitors. Complex spheroids include a stromal component modeled by human endothelial cells (HUVEC) and fibroblasts modeled by human mesenchymal stem cells (MSCs). The concentration ranges selected for each drug and investigational agent were based upon clinically achievable concentrations if the clinical Cmax of the agent was known.
Compounds. The drugs and investigational agents: inavolisib (NSC800729), alpelisib (NSC765974), duvelisib (NSC772469), copanlisib (NSC816437), ipatasertib (NSC767898), afuresertib (NSC778305), talazoparib (NSC767125), sapanisertib (NSC764658), selumetinib (NSC741078), tovorafenib (DAY101, NSC766906), vemurafenib (NSC761431), ravoxertinib (NSC781343), sotorasib (NSC818433), MRTX1133 (NSC 836407), abemaciclib (NSC 768073), palbociclib (NSC758247), venetoclax (NSC 766270), SY5609 (NSC837396), enzalutamide (NSC755605), and darolutamide (NSC825331), were obtained from the National Cancer Institute (NCI) Developmental Therapeutics Program Chemical Repository. The FDA-approved anticancer drug set is available from the NCI Developmental Therapeutics Program. […] The stock solutions were prepared in dimethyl sulfoxide (DMSO, Sigma-Aldrich, St. Louis, MO, cat. D2650) at 800-fold the tested concentration and stored at -70 degrees C prior to their use. All drugs and investigational agents were tested over a range starting from a high concentration at or near the clinical Cmax and decreasing in half-log increments. If the clinical Cmax for an agent had not been determined, the highest concentration tested was 10 microM.
Cell Culture. All cells were maintained in an incubator at 37 degrees C and 5% CO2 with 95% humidity. The PDC lines were cultured according to standard operating procedures established by the NCI PDMR (https://pdmr.cancer.gov/sops/default.htm). All PDCs were thawed and cultured in Matrigel-coated flasks prepared with a working solution of 1X Ham's F-12 nutrient mix, without supplementation (Invitrogen, Waltham, MA, cat. 11765054), 100 U/mL penicillin-streptomycin (Invitrogen, cat. 15140122), and 2.5% Matrigel (Corning Inc., Corning, NY, cat. 354248) for the first three passages. The 354836-022-R-J1-PDC, 475296-252-R-J1-PDC, and 997726-040-R-J2-PDC lines were cultured in 6A media, which includes advanced DMEM/F-12 (Thermo Fisher Scientific, cat. 12634028), 10 mM HEPES (Thermo Fisher Scientific, cat. 15630080), 1X GlutaMAX supplement (Thermo Fisher Scientific, cat. 35050061), 0.1 mg/mL primocin (InvivoGen, San Diego, CA, cat. ant-pm-2), 10% defined fetal bovine serum, heat inactivated (HyClone Laboratories Inc., Logan, UT, cat. SH30070.03HI), 50% L-WRN conditioned media (ATCC, cat. CRL-3276), 1.25 mM N-Acetyl-L-cysteine (Sigma-Aldrich, cat. A9165), 10 mM nicotinamide (Sigma-Aldrich, cat. N0636), 1X B-27 supplement (Thermo Fisher Scientific, cat. 17504044), 1X N-2 supplement (Thermo Fisher Scientific, cat. 17502048), and 10 microM Y-27632 dihydrochloride (Tocris Bioscience, Bristol, United Kingdom, cat. 1254). The 624824-186-R-J2-PDC line was cultured in 6C/Colon 1B media, which includes all 6A media components plus 50 ng/mL human EGF recombinant protein (Thermo Fisher Scientific, cat. PHG0311). […]

[1] = second compound 0.00316 µM, first compound 0.0316 µM
[2] = second compound 0.00316 µM, first compound 0.1 µM
[3] = second compound 0.00316 µM, first compound 0.316 µM
[4] = second compound 0.00316 µM, first compound 1 µM
[5] = second compound 0.00316 µM, first compound 3.16 µM
[6] = second compound 0.00316 µM, first compound 10 µM
[7] = second compound 0.01 µM, first compound 0.0316 µM
[8] = second compound 0.01 µM, first compound 0.1 µM
[9] = second compound 0.01 µM, first compound 0.316 µM
[10] = second compound 0.01 µM, first compound 1 µM
[11] = second compound 0.01 µM, first compound 3.16 µM
[12] = second compound 0.01 µM, first compound 10 µM
[13] = second compound 0.0316 µM, first compound 0.0316 µM
[14] = second compound 0.0316 µM, first compound 0.1 µM
[15] = second compound 0.0316 µM, first compound 0.316 µM
[16] = second compound 0.0316 µM, first compound 1 µM
[17] = second compound 0.0316 µM, first compound 3.16 µM
[18] = second compound 0.0316 µM, first compound 10 µM
[19] = second compound 0.1 µM, first compound 0.0316 µM
[20] = second compound 0.1 µM, first compound 0.1 µM
[21] = second compound 0.1 µM, first compound 0.316 µM
[22] = second compound 0.1 µM, first compound 1 µM
[23] = second compound 0.1 µM, first compound 3.16 µM
[24] = second compound 0.1 µM, first compound 10 µM
[25] = second compound 0.316 µM, first compound 0.0316 µM
[26] = second compound 0.316 µM, first compound 0.1 µM
[27] = second compound 0.316 µM, first compound 0.316 µM
[28] = second compound 0.316 µM, first compound 1 µM
[29] = second compound 0.316 µM, first compound 3.16 µM
[30] = second compound 0.316 µM, first compound 10 µM
[31] = second compound 1 µM, first compound 0.0316 µM
[32] = second compound 1 µM, first compound 0.1 µM
[33] = second compound 1 µM, first compound 0.316 µM
[34] = second compound 1 µM, first compound 1 µM
[35] = second compound 1 µM, first compound 3.16 µM
[36] = second compound 1 µM, first compound 10 µM

`C=CC(=O)N1CCN(c2nc(=O)n(-c3c(C)ccnc3C(C)C)c3nc(-c4c(O)cccc4F)c(F)cc23)C(C)C1` (centres undefined) + COc1c(OCCCN2CCOCC2)ccc2c3n(c(=NC(=O)c4cnc(N)nc4)nc12)CCN3 was tested, and the IC50 (second compound 0.00316 µM) was > 10 µM, the IC50 (second compound 0.01 µM) was > 10 µM and the IC50 (second compound 0.0316 µM) was > 10 µM. For the same molecule, the IC50 (second compound 0.1 µM) was < 0.0316 µM, the IC50 (second compound 0.316 µM) was < 0.0316 µM and the IC50 (second compound 1 µM) was < 0.0316 µM. For the same molecule, the viability, T/C [1] was 100%, the viability, T/C [2] was 124% and the viability, T/C [3] was 106%. It also gave a viability, T/C [4] of 108%, a viability, T/C [5] of 101% and a viability, T/C [6] of 113%. The viability, T/C [7] was 101%, the viability, T/C [8] was 91.6% and the viability, T/C [9] was 96.1%. For the same molecule, the viability, T/C [10] was 91%, the viability, T/C [11] was 138% and the viability, T/C [12] was 104%. It also gave a viability, T/C [13] of 84.5%, a viability, T/C [14] of 67.6% and a viability, T/C [15] of 74.6%. It also gave a viability, T/C [16] of 109%, a viability, T/C [17] of 95.6% and a viability, T/C [18] of 90.6%. The viability, T/C [19] was 46.2%, the viability, T/C [20] was 51% and the viability, T/C [21] was 41.1%. It also gave a viability, T/C [22] of 45.1%, a viability, T/C [23] of 48.3% and a viability, T/C [24] of 53.1%. The viability, T/C [25] was 21.3%, the viability, T/C [26] was 18.4% and the viability, T/C [27] was 18.2%. For the same molecule, the viability, T/C [28] was 21%, the viability, T/C [29] was 20.9% and the viability, T/C [30] was 35%. For the same molecule, the viability, T/C [31] was 6.05%, the viability, T/C [32] was 6.58% and the viability, T/C [33] was 5.84%. It also gave a viability, T/C [34] of 9.25%, a viability, T/C [35] of 11.6% and a viability, T/C [36] of 19.2%.

For `CNC(=O)c1ccc(N2C(=S)N(c3ccc(C#N)c(C(F)(F)F)c3)C(=O)C2(C)C)cc1F` + CC(Nc1ccc2c(c1)OCCn1cc(N3C(=O)OCC3C(F)F)nc1-2)C(N)=O, the IC50 (second compound 0.00316 µM) was > 10 µM, the IC50 (second compound 0.01 µM) was > 10 µM and the IC50 (second compound 0.0316 µM) was > 10 µM. For the same molecule, the IC50 (second compound 0.1 µM) was > 10 µM, the IC50 (second compound 0.316 µM) was > 10 µM and the IC50 (second compound 1 µM) was > 10 µM. The viability, T/C [1] was 120%, the viability, T/C [2] was 98.2% and the viability, T/C [3] was 104%. The viability, T/C [4] was 81.5%, the viability, T/C [5] was 104% and the viability, T/C [6] was 88.3%. The viability, T/C [7] was 105%, the viability, T/C [8] was 91.5% and the viability, T/C [9] was 88.2%. It also gave a viability, T/C [10] of 82.3%, a viability, T/C [11] of 91.2% and a viability, T/C [12] of 95.5%. The viability, T/C [13] was 103%, the viability, T/C [14] was 95% and the viability, T/C [15] was 87.1%. For the same molecule, the viability, T/C [16] was 77.2%, the viability, T/C [17] was 91.2% and the viability, T/C [18] was 90.9%. The viability, T/C [19] was 94.7%, the viability, T/C [20] was 82.2% and the viability, T/C [21] was 99.7%. For the same molecule, the viability, T/C [22] was 86.7%, the viability, T/C [23] was 90.2% and the viability, T/C [24] was 72.5%. The viability, T/C [25] was 71.9%, the viability, T/C [26] was 79% and the viability, T/C [27] was 75.2%. For the same molecule, the viability, T/C [28] was 71%, the viability, T/C [29] was 64.3% and the viability, T/C [30] was 60.6%. It also gave a viability, T/C [31] of 61%, a viability, T/C [32] of 68% and a viability, T/C [33] of 58.8%. The viability, T/C [34] was 60.4%, the viability, T/C [35] was 56.2% and the viability, T/C [36] was 48.8%.
